Experimental findings from paper PMC12430443, “Discovery of Novel Benzamide-Based Sigma-1 Receptor Agonists with Enhanced Selectivity and Safety” (Molecules, 2025) are described below.

The nature of data set [1]: Cytotoxicity, MTT/MTS assay. Format: cell-based, human. Conditions: human, SH-SY5Y neuroblastoma cells; percentage of cell death after 24 h treatment at 100 µM (duplicate); read-out: SY5Y % Cytotox. The method, then: (§1) To assess potential cytotoxicity in CNS-relevant cells, human neuroblastoma (SH-SY5Y) cells were exposed to compounds 2–7 at concentrations up to 100 μM. Cell viability was measured using the MTT assay.
(§2) Cytotoxicity was assessed in human SH-SY5Y neuroblastoma cells cultured in Dulbecco’s Modified Eagle Medium (DMEM, Gibco, Thermo Fisher Scientific Inc., Waltham, MA, USA) supplemented with 2 mM L-glutamine, 100 μg/mL streptomycin, 100 IU/mL penicillin, 1 mM non-essential amino acids (all from Invitrogen, Thermo Fisher Scientific Inc., Waltham, MA, USA), and 10% (v/v) heat-inactivated fetal bovine serum (Sigma-Aldrich, Burlington, MA, USA). Cells were maintained at 37 °C in a humidified 5% CO2 atmosphere and serum-starved for 24 h to synchronize cultures before treatment with the test compounds at final concentrations of 100, 50, 10, 5, 1, 0.5, 0.1, or 0.05 μM (all in <0.1% DMSO). […] Absorbance was measured at 490 nm, and the results were expressed as a percentage relative to untreated control cells (set at 100%).
Background: Formazan colour is commonly taken as a measure of viable cells.

In data set [2] the test system is SH-SY5Y neuroblastoma cells. In words: Cytotoxicity, MTT/MTS assay. Format: cell-based, human. Conditions: selectivity index; IC50 was considered > 100 µM. The method, then: as §1, §2
A short description of a further data set: Plasma protein binding. Format: in vitro ADME. Conditions: n = 2. The protocol: (§3) Solubility and stability remained unchanged in simulated gastric fluid (SGF) and simulated intestinal fluid (SIF), which mimic gastrointestinal digestion. Intestinal permeability was assessed using a two-chamber system with apical (A, pH 6.5) and basolateral (B, pH 7.4) compartments, representing the luminal and blood/mesenteric lymph sides of the gastrointestinal tract, respectively. […] The efflux ratios for both compounds ranged between 1 and 2, indicating improved permeability relative to the reference compound 1.
Standardized in vitro ADME experiments were performed by Eurofins Cerep (Poitiers, France). […] The compound was classically evaluated at 10 µM for all of the ADME analyses. Bidirectional permeability (apical A to basolateral B pH 6.5/7.4, and basolateral B to apical A pH 7.4/6.5) was assessed in the epithelial colorectal adenocarcinoma cell line (Caco-2 cell line). The results were expressed as ×10^−6 cm/s (Papp) and as % recovery. The efflux ratio, i.e., Papp (B→A)/Papp(A→B), was calculated. Plasma protein binding was analyzed by HPLC-MS/MS after 4 h of incubation at 37 °C, as described by Banker et al.. Concentration was evaluated by LC/MS-MS. […] Respective metabolites for each specific transporter substrate were analyzed by fluorometry or scintillation counting, and % inhibition of control values were calculated. […] The efflux ratio was calculated as Papp(B→A)/Papp(A→B). […]

The nature of data set [3]: Bidirectional permeability in Caco-2 cells. Conditions: human; for Papp A→B at 10 µM / Papp B→A at 10 µM: pH 7.4, 10 µM; for Papp A→B at 10 µM: n = 2, read-out: Permeability A/B pH7.4/7.4; for Papp B→A at 10 µM: n = 2, read-out: Permeability B/A pH7.4/7.4; for efflux ratio at 10 µM: read-out: e-ratio. Format: in vitro ADME. The protocol: as §3
Standardized in vitro ADME experiments were performed by Eurofins Cerep (Poitiers, France). Solubility assays were performed in PBS at pH 7.4, but also in simulated gastric fluid (SGF) and intestinal fluid (SIF), through the classical shake-flask method described by Lipinski et al., using HPLC-UV/VIS technology. The results were expressed in µM. The compound was classically evaluated at 10 µM for all of the ADME analyses. Bidirectional permeability (apical A to basolateral B pH 6.5/7.4, and basolateral B to apical A pH 7.4/6.5) was assessed in the epithelial colorectal adenocarcinoma cell line (Caco-2 cell line). The results were expressed as ×10^−6 cm/s (Papp) and as % recovery. The efflux ratio, i.e., Papp (B→A)/Papp(A→B), was calculated. Plasma protein binding was analyzed by HPLC-MS/MS after 4 h of incubation at 37 °C, as described by Banker et al.. Concentration was evaluated by LC/MS-MS. CYP inhibition was performed in human liver microsomes as described in [28]. Analysis of the respective metabolites was performed by HPLC-MS/MS. Transporter inhibition analysis was also performed in overexpressing cell lines. Respective metabolites for each specific transporter substrate were analyzed by fluorometry or scintillation counting, and % inhibition of control values were calculated. P-glycoprotein transporter substrate assessment was performed by bidirectional permeability analysis (apical A to basolateral B pH 7.4/7.4, and basolateral B to apical A pH 7.4/7.4) in the Caco-2 cell line with and without verapamil, as described in [26]. The results were expressed as ×10^−6 cm/s (Papp) and as % recovery. The efflux ratio was calculated as Papp(B→A)/Papp(A→B). CYP450 induction was assessed in human hepatocytes by measuring the mRNA levels of seven CYP isoforms via qPCR, as described in [40]. The compound was tested at 1, 10, and 100 μM, and fold-induction values were compared with predefined cut-off thresholds for each isoform and hepatocyte lot.
A general note: Caco-2 cells form a polarised layer with tight junctions and transporters.

In a further data set the target is T1, S1R-BiP complex (Cricetulus griseus, UniProt A0A3L7I3A5).
T1 construct: host or cells: CHO cells
In words: S1R-BiP complex dissociation, co-immunoprecipitation and BiP ELISA in CHO cells. Format: cell-based. Conditions: for Dissociation of the S1R-BiP complex (in words): 1 and 10 µM, 30 min incubation, CHO cells, n = 6. The protocol:
The interaction between S1R and BiP provides a reliable assay to identify S1R ligands by monitoring the dynamics of the S1R-BiP complex. In this assay, the known S1R agonist PRE-084 and antagonist NE-100 were used as controls (Figure 3).
The ability of the compounds to promote dissociation of the S1R–BiP complex was assessed by Amylgen (Montferrier-sur-Lez, France) as described in [22, 23]. CHO cells were treated with the test compounds for 30 min at 37 °C, followed by crosslinking with dithiobis(succinimidyl propionate) (DSP; Thermo Scientific, Waltham, MA, USA). Cells were lysed after 15 min on ice, and the lysates were centrifuged. Supernatants were incubated overnight at 4 °C with an anti-S1R antibody (Abcam, Cambridge, UK), and then with Protein A-Sepharose (Invitrogen). After the first centrifugation, pellets were resuspended in radioimmunoprecipitation assay (RIPA) buffer, centrifuged again, and resuspended in 2× sample buffer/bMCE buffer. Following a third centrifugation, the supernatants were analyzed for BiP immunoreactivity using an ELISA kit (SEC343Mu, USCNK Life Sciences, Wuhan, China).
Figure 3 In vitro evaluation of agonist activity of compounds 2, 3, and 6: The effects of compounds 2, 3, and 6 at 1 and 10 µM on the S1R-BiP association after 30 min of incubation were analyzed by co-immunoprecipitation using an anti-S1R antibody (red). BiP levels were quantified by ELISA. PRE-084 (white) and NE-100 (black) served as the reference agonist and antagonist, respectively (10 µM). Agonist activity was confirmed by its blockade with NE-100 (black hatching). […] Data represent the mean ± SEM from n = 6 per condition. Statistical significance was assessed using Dunnett’s test: *** p < 0.0001, * p < 0.05 vs. untreated control; ### p < 0.0001, # p < 0.05 for NE-100 blockade.

T1 sequence (A0A3L7I3A5 1-223, one chain of several): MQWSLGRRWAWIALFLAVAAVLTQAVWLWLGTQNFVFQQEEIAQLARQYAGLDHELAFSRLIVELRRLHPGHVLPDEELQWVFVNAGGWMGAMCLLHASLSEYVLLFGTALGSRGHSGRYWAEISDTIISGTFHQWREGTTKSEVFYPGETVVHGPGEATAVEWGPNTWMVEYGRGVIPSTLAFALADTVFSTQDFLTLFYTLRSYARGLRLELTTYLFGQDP

The term fraction unbound denotes the share of the substance not bound to proteins or other matrix. Read a high fraction unbound as weak binding. Turning to `CN(CCC(=O)NCc1cccc(Cl)c1)Cc1ccccc1` [Compound 2, 3-(Benzylmethylamino)-N-(3-chlorobenzyl)propanamide], the cytotoxicity at 24 h, 100 µM in data set [1] worked out at 12%. Further, in data set [2], the “IC50 (SY5Y)/ Ki (S1R)” value is >166,666. The molecule also had a fraction unbound at 4 h, 10 µM in the data set “Plasma protein binding” of 0.02. In data set [3], the Papp A→B at 10 µM came out at 39 ×10⁻⁶ cm/s, the Papp B→A at 10 µM is 67.4 ×10⁻⁶ cm/s and the efflux ratio at 10 µM came to 1.7. For the same molecule, at S1R-BiP complex, the “Dissociation of the S1R-BiP complex (in words)” value is reported as “significant, dose-dependent dissociation”. Besides, on S1R-BiP complex (co-treatment with NE-100 (10 µM)), the “Dissociation of S1R-BiP complex in the presence of NE-100 (in words)” value is listed as “completely inhibited”.

As for `CN(CCC(=O)NCc1ccc(C#N)cc1)Cc1ccccc1` [Compound 6, 3-(Benzylmethylamino)-N-(4-cyanobenzyl)propanamide], in data set [1], the cytotoxicity at 24 h, 100 µM turned out to be 8%. The “IC50 (SY5Y)/ Ki (S1R)” value in data set [2] is on record as >17,857. Further, the fraction unbound at 4 h, 10 µM in the data set “Plasma protein binding” was 0.37. Further, in data set [3], the Papp A→B at 10 µM turned out to be 49.8 ×10⁻⁶ cm/s, the Papp B→A at 10 µM came to 60.9 ×10⁻⁶ cm/s and the efflux ratio at 10 µM was 1.2. The “Dissociation of the S1R-BiP complex (in words)” value at S1R-BiP complex was “slight and less significant reduction”.
